According to US10221168B1, “Small-compound enhancers for functional O-mannosylation of alpha-dystroglycan, and uses thereof” (priority 2015, dated 2019):

Tested on: FOG of α-DG on the cell surfaces
Test: Cell-based HTS/HCS assay, IIH6 antibody as probe (EC1.5)
Details: concentration of the compound required to enhance the FOG of α-DG by 50% over the controls; cell-based assays in vitro
Excerpt: (§1) Protein glycosylation is a multiple-step process that requires a large number of proteins in the secretory pathway of the cells. Thus we chose cell-based assay because our goal is to identify enhancer the FOG of α-DG on the cell surfaces. The assay system is HTS/HCS friendly and can adapt to various cell lines including myotubes as well as various readout methods including AlphaScreen, fluorescence density and HCS/fluorescence imaging. The standard operation protocol (SOP) for adhesion cells is described below and the FIG. 1 illustrates the assay process using myoblasts as the controls and screening cells and the IIH6 antibody as the probe. Other adhesion cells such CHO (Chinese hamster ovary) cell line can be implemented into this assay by simply removing the differentiation step.
Cell cultures: All cells are cultured at 37° C., 5% CO2, in appropriate media (F-12 for epithelial cells and DMEM for myoblasts) supplement with 10-20% fetal calf serum (FCS) and 1% antibiotics. […] The cells will be detached with trypsin EDTA and suspended in the cell culture media. The cells will be counted and seeded into the multiple-well plates as desired. Myotubes formation: When the myoblasts reach confluence, change the growth media to differential media (DEME with 2% horse serum) and incubate for 4-5 days.
The cells were fixed, permeablized, and then blocked with 10% BSA in PBS for 1 hour. […] After washing the cells with PBS for 2 times, the DAPI was used to stain the cells for 15 mins and wash 3 times with PBS. The images were captured with an inverted Olympus fluorescent microscope. For small compound localization experiment, the cells are incubated with the biotin conjugated compounds and then the cells were washed and incubated with streptavidin-Dye and then images will be captured to see the location of the compound-target-protein.
H, EC1.5<5 μM; M, EC1.5-20 μM; L, EC1.5 20-50 μM; VL, EC1.5>50 μM.

| Compound | Activity (EC1.5) |
| --- | --- |
| CCC(c1nnnn1Cc1cccs1)N1CCN(c2nc3cc([N+](=O)[O-])cc(F)c3s2)CC1 (centres unmarked) [Compound 45, 7-fluoro-5-nitro-2-(4-(1-(1-(thiophen-2-ylmethyl)-1H-tetrazol-5-yl)propyl)piperazin-1-yl)benzothiazole] | L (EC1.5 20-50 μM) |
| CCC(c1nnnn1Cc1cccs1)N1CCN(c2nc3cccc(C(=O)OC)c3s2)CC1 (centres unmarked) [Compound 35, Methyl 2-(4-(1-(1-(thiophen-2-ylmethyl)-1H-tetrazol-5-yl)propyl)piperazin-1-yl)benzothiazole-7-carboxylate] | L (EC1.5 20-50 μM) |
| CCC(c1nnnn1CCc1cccs1)N1CCN(C2Sc3c(F)cc(N)cc3N2[N+](=O)[O-])CC1 (centres unmarked) [Compound 62, 5-amino-7-fluoro-3-nitro-2-(4-(1-(1-(thiophen-2-ylethyl)-1H-tetrazol-5-yl)propyl)piperazin-1-yl)benzothiazole] | H (EC1.5<5 μM) |
| CCC(c1nnnn1Cc1ccns1)N1CCN(c2nc3cc(N)cc(F)c3s2)CC1 (centres unmarked) [Compound 73, 5-amino-7-fluoro-2-(4-(1-(1-(isothiazol-5-ylmethyl)-1H-tetrazol-5-yl)propyl)piperazin-1-yl)benzothiazole] | H (EC1.5<5 μM) |
| CCC(c1nnnn1CCc1cccs1)N1CCN(C2Sc3c(F)cc(N)cc3N2N)CC1 (centres unmarked) [Compound 61, 5-amino-7-fluoro-3-amino-2-(4-(1-(1-(thiophen-2-ylethyl)-1H-tetrazol-5-yl)propyl)piperazin-1-yl)benzothiazole] | H (EC1.5<5 μM) |
| CCC(c1nnnn1Cc1cccs1)N1CCN(c2nc3ccc(-c4ccccc4)cc3s2)CC1 (centres unmarked) [Compound 17, 6-phenyl-2-(4-(1-(1-(thiophen-2-ylmethyl)-1H-tetrazol-5-yl)propyl)piperazin-1-yl)benzothiazole] | VL (EC1.5>50 μM) |
| CCC(c1nnnn1CCc1cccs1)N1CCN(c2nc3cc(N)cc(F)c3s2)C(N)C1 (centres unmarked) [Compound 66, 5-amino-7-fluoro-2-(4-(1-(1-(thiophen-2-ylethyl)-1H-tetrazol-5-yl)propyl)-2-amino-piperazin-1-yl)benzothiazole] | H (EC1.5<5 μM) |
| CCC(c1nnnn1Cc1cccs1)N1CCN(c2nc3ccc(C)cc3s2)CC1 (centres unmarked) [Compound 16, 6-methyl-2-(4-(1-(1-(thiophen-2-ylmethyl)-1H-tetrazol-5-yl)propyl)piperazin-1-yl)benzothiazole] | L (EC1.5 20-50 μM) |
| CCC(c1nnnn1Cc1cccs1)N1CCN(c2nc3cc(OC)c(OC)c(OC)c3s2)CC1 (centres unmarked) [Compound 20, 5.6.7-trimethaxy-2-(4-(1-(1-(thiophen-2-ylmethyl)-1H-tetrarol-5-yl)propyl)piperazin-1-yl)benzothiazole] | M (EC1.5-20 μM) |
| CCC(c1nnnn1Cc1cccs1)N1CCN(c2nc3ccc(C(=O)O)cc3s2)CC1 (centres unmarked) [Compound 32, 2-(4-(1-(1-(thiophen-2-ylmethyl)-1H-tetrazol-5-yl)propyl)piperazin-1-yl)benzothiazole-6-carboxylic acid] | L (EC1.5 20-50 μM) |
| CCC(c1nnnn1Cc1cccs1)N1CCCN(c2nc3cc(N)cc(F)c3s2)CCC1 (centres unmarked) [Compound 72, 5-amino-7-fluoro-2-(5-(1-(1-(thiophen-2-ylmethyl)-1H-tetrazol-5-yl)propyl)1,5-diazocane-1-yl)benzothiazole] | H (EC1.5<5 μM) |
| CCC(c1nnnn1Cc1cccs1)N1CCN(c2nc3cc(N)cc(F)c3s2)CC1 (centres unmarked) [Compound 46, 5-amino-7-fluoro-2-(4-(1-(1-(thiophen-2-ylmethyl)-1H-tetrazol-5-yl)propyl)piperazin-1-yl)benzothiazole] | H (EC1.5<5 μM) |
| c1csc(Cn2nnnc2CN2CCN(c3nc4ccccc4s3)CC2)c1 [Compound 2, 2-(4-((1-(thiophen-2-ylmethyl)-1H-tetrazol-5-yl)methyl)piperazin-1-yl)benzothiazole] | M (EC1.5-20 μM) |
| CCC(c1nnnn1CCc1cccs1)N1CCCN(c2nc3cc(N)cc(F)c3s2)CC1 (centres unmarked) [Compound 76, 5-amino-7-fluoro-2-(4-(1-(1-(thiophen-2-ylethyl)-1H-tetrazol-5-yl)propyl)1,4-diazepane-1-yl)benzothiazole] | H (EC1.5<5 μM) |
| CCC(c1nnnn1Cc1cccs1)C1CCCN(c2nc3cc(N)cc(F)c3s2)CC1 (centres unmarked) [Compound 70, 5 amino-7-fluoro-2-(4-(1-(1-(thiophen-2-ylmethyl)-1H-tetrazol-5-yl)propyl)azepane-1-yl)benzothiazole] | H (EC1.5<5 μM) |
| CCC(c1nnnn1Cc1cccs1)N1CCN(c2nc3ccc(NC(=O)CCCC[C@@H]4SC[C@@H]5NC(=O)N[C@@H]54)cc3s2)CC1 (stereo partly drawn) [Compound 12, 5-((3aS,4S,6aR)-2-oxohexahydro-1H-thieno[3,4-d]imidazol-4-yl)-N-(2-(4-(1-(1-(thiophen-2-ylmethyl)-1H-tetrazol-5-yl)propyl)piperazin-1-yl)benzothiazol-6-yl)pentanamide] | H (EC1.5<5 μM) |

Tested on: functional O-mannosylation of α-DG on cell surfaces (CHO, C2C12, HSMB, FKRPD cells)
Test: Immuno-fluorescent staining with IIH6 antibody after compound treatment (FIG. 1)
Type: cell-based, Chinese hamster, mouse, human
Details: FKRPD cells in 96 well-plates, series of concentrations, 48 hours
Description: The Chinese hamster ovary (CHO), mouse myoblasts (C2C12), normal human myoblasts (HSMB), human FKRP deficient myoblasts (FKRPD) were grown in 96 well-plates and treated with the compound at a series concentrations for 48 hours. The cells were examined with immuno-fluorescent staining using the IIH6 antibody that recognize the FOG of α-DG as the primary antibody followed by an appropriate secondary antibody conjugated with fluorophore. The detailed protocol is described in experiment section below.
as §1
The cells were fixed, permeablized, and then blocked with 10% BSA in PBS for 1 hour. […]

| Compound | enhancement of the functional O-mannosylation of α-DG on cell surfaces |
| --- | --- |
| CCC(c1nnnn1Cc1cccs1)N1CCN(c2nc3cc(N)cc(F)c3s2)CC1 (centres unmarked) [Compound 46, 5-amino-7-fluoro-2-(4-(1-(1-(thiophen-2-ylmethyl)-1H-tetrazol-5-yl)propyl)piperazin-1-yl)benzothiazole] | dose-dependent enhancement |
